For 42 compounds, IC50 results are on record in patent publication US20260297109A1, “COMPOUNDS AS SUMO ACTIVATING ENZYME INHIBITORS” (WIGEN BIOMEDICINE TECHNOLOGY (SHANGHAI) CO., LTD., priority 2022, published 2026).

This test deals with T1, SAE (Homo sapiens, UniProt Q9UBT2).
T1 construct: endogenous in cells; host or cells: HCT116
T1 sequence (Q9UBT2 1-640): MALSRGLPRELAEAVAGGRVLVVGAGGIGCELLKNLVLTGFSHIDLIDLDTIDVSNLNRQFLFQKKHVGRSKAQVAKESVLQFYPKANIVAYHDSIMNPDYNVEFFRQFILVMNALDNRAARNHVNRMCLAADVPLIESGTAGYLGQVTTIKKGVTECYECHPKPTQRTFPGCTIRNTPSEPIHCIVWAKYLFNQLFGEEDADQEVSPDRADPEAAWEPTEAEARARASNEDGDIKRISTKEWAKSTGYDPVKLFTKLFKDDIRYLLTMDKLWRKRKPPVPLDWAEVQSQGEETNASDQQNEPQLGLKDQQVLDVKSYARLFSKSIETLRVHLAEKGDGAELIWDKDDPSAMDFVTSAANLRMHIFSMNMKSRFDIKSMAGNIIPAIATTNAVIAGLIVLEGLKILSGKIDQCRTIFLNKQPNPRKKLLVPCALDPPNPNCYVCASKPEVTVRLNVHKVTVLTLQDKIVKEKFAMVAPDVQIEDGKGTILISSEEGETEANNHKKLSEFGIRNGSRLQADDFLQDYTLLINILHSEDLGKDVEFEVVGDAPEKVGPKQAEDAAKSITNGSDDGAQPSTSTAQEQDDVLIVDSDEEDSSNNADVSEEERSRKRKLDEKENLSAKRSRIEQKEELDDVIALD
T1 sequence (Q9UBE0 1-346): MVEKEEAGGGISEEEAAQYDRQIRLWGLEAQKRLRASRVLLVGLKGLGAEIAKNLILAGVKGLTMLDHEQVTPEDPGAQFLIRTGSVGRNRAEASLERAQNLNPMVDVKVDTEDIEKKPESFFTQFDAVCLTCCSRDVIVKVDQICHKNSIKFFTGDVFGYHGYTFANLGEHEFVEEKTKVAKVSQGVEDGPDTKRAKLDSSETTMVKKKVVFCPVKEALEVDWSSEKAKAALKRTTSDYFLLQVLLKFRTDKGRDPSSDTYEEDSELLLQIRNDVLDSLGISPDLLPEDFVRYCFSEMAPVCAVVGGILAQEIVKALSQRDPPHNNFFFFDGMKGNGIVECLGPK
Kind of test: SUMO IF: in vitro inhibitory activity assay against SAE in HCT116 cells (SUMO-2/3 immunofluorescence). The conditions noted are these: class symbols, 6 h at 37° C. The test is classed as cell-based. In a few lines: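 HCT116 cells were treated with compound for 6 h at 37 °C, then PFA-fixed, Triton-permeabilised and BSA-blocked. They were stained overnight at 4 °C with anti-SUMO-2/3 (18H8) rabbit mAb (1:400), then with FITC anti-rabbit IgG (1:300). Fluorescence versus DMSO gave inhibition rate and IC50.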
For `NS(=O)(=O)CC[C@H]1[C@H](F)[C@@H](Nc2ncncc2C(=O)c2cc3c(s2)CCC[C@]32NCCc3ccc(Cl)cc32)C[C@@H]1O` [Compound 638], the IC50 (commonly the concentration that gives 50% inhibition) fell in the range of 50 to 200 nM.

For the compound `CN1CCc2ccc(Cl)cc2[C@]12CCCc1sc(C(=O)c3cncnc3N[C@H]3C[C@H](O)[C@@H](COS(N)(=O)=O)[C@@H]3F)cc12` [Compound 595], the IC50 was greater than 200 nM.

Take `N#Cc1ccc2c(c1)[C@]1(CCCc3sc(C(=O)c4cncnc4N[C@H]4C[C@H](O)[C@@H](COS(N)(=O)=O)[C@@H]4F)cc31)NCC2` [Compound 95]: the IC50 was greater than 200 nM.

As to `NS(=O)(=O)OC[C@H]1[C@H](F)[C@@H](Nc2ncncc2C(=O)c2cc3c(s2)OC[C@]32NCCc3ccccc32)C[C@@H]1O` [Compound 141], the IC50 was in the range of 50 to 200 nM.

Compound `NS(=O)(=O)OC[C@H]1[C@H](F)[C@@H](Nc2ncncc2C(=O)c2cc3c(s2)C=CC32NCCc3ccc(F)cc32)C[C@@H]1O` (stereo partly drawn) [Compound 163] returned an IC50 of 50 to 200 nM.

For `NS(=O)(=O)OC[C@H]1[C@H](F)[C@@H](Nc2ncncc2C(=O)c2cc3c(s2)COC[C@]32NCCc3cc(Cl)c(Cl)cc32)C[C@@H]1O` [Compound 563], the IC50 was 50 to 200 nM.

`NS(=O)(=O)OC[C@H]1[C@H](F)[C@@H](Nc2ncncc2C(=O)c2cc3c(s2)CCC[C@@]32NCCc3ncc(Cl)cc32)C[C@@H]1O` [Compound 604] gave an IC50 greater than 200 nM.

`Cc1sc(C(=O)c2cncnc2N[C@H]2C[C@H](O)[C@@H](COS(N)(=O)=O)[C@@H]2F)cc1C1NCCc2cc(F)c(F)cc21` (stereo partly drawn) [Compound 245] gave an IC50 of 50 to 200 nM.

`Cc1sc(C(=O)c2cncnc2N[C@H]2C[C@H](O)[C@@H](COS(N)(=O)=O)[C@@H]2F)cc1[C@@H]1NCCc2ccc(C#N)cc21` [Compound 239] came in with an IC50 of 50 to 200 nM.

The compound `CC1CN[C@@]2(C=Cc3sc(C(=O)c4cncnc4N[C@H]4C[C@H](O)[C@@H](COS(N)(=O)=O)[C@@H]4F)cc32)c2cc(Cl)ccc21` (stereo partly drawn) [Compound 1054] yielded an IC50 greater than 200 nM.

In turn, `NS(=O)(=O)OC[C@H]1[C@H](F)[C@@H](Nc2ncncc2C(=O)c2cc3c(s2)CC[C@@]32OCCc3ccc(Cl)cc32)C[C@@H]1O` [Compound 706] displayed an IC50 greater than 200 nM.

For `Cc1sc(C(=O)c2cncnc2N[C@H]2C[C@H](O)[C@@H](COS(N)(=O)=O)[C@@H]2F)cc1C1NCCc2ccc(C3CC3)cc21` (stereo partly drawn) [Compound 242], the IC50 fell in the range of 50 to 200 nM.

`CCN1Cc2sc(C(=O)c3cncnc3N[C@H]3C[C@H](O)[C@@H](COS(N)(=O)=O)[C@@H]3F)cc2[C@@]2(C1)OCCc1ccc(Cl)cc12` [Compound 730]: the half-inhibitory concentration (IC50) was greater than 200 nM.

With `NS(=O)(=O)OC[C@H]1[C@H](F)[C@@H](Nc2ncncc2C(=O)c2cc3c(s2)CC[C@]32OCCc3ccc(F)cc32)C[C@@H]1O` [Compound 749], the IC50 lay within 50 to 200 nM.

In turn, `CC(C)N1Cc2sc(C(=O)c3cncnc3N[C@H]3C[C@H](O)[C@@H](COS(N)(=O)=O)[C@@H]3F)cc2C2(C1)NCCc1ccc(Cl)cc12` (stereo partly drawn) [Compound 648] displayed an IC50 of no more than 50 nM.

Compound `CN1Cc2sc(C(=O)c3cncnc3N[C@H]3C[C@H](O)[C@@H](COS(N)(=O)=O)[C@@H]3F)cc2[C@]2(C1)OCCc1ccc(F)cc12` [Compound 722] gave an IC50 of no more than 50 nM.

As for `CC(C)N1Cc2sc(C(=O)c3cncnc3N[C@H]3C[C@H](O)[C@@H](COS(N)(=O)=O)[C@@H]3F)cc2C2(C1)OCCc1ccc(F)cc12` (stereo partly drawn) [Compound 732], the IC50 fell in the range of 50 to 200 nM.

`NS(=O)(=O)OC[C@H]1[C@H](F)[C@@H](Nc2ncncc2C(=O)c2cc3c(s2)CN(C2CC2)C[C@@]32OCCc3ccc(F)cc32)C[C@@H]1O` [Compound 739] came in with an IC50 greater than 200 nM.

The compound `CC1(C)CNC2(C=Cc3sc(C(=O)c4cncnc4N[C@H]4C[C@H](O)[C@@H](COS(N)(=O)=O)[C@@H]4F)cc32)c2cc(Cl)ccc21` (stereo partly drawn) [Compound 1059] gave an IC50 of 50 to 200 nM.

`NS(=O)(=O)OC[C@H]1[C@H](F)[C@@H](Nc2ncncc2C(=O)c2cc3c(s2)CCC[C@]32NCCc3ccncc32)C[C@@H]1O` [Compound 678] came in with an IC50 of 50 to 200 nM.

`NS(=O)(=O)OC[C@H]1[C@H](F)[C@@H](Nc2ncncc2C(=O)c2cc3c(s2)CSCC32NCCc3ccc(Cl)cc32)C[C@@H]1O` (stereo partly drawn) [Compound 300] registered a 50% inhibitory concentration (IC50) of no more than 50 nM.

In turn, `NS(=O)(=O)OC[C@H]1[C@H](F)[C@@H](Nc2ncncc2C(=O)c2cc3c(s2)C=C[C@]32OCCc3ccccc32)C[C@@H]1O` [Compound 755] showed a half-maximal inhibitory concentration (IC50) of 50 to 200 nM.

Regarding `NS(=O)(=O)OC[C@H]1[C@H](F)[C@@H](Nc2ncncc2C(=O)c2cc3c(s2)CCC[C@@]32NC(=O)Cc3ccc(Cl)cc32)C[C@@H]1O` [Compound 628], the IC50 is greater than 200 nM.

In the case of `NS(=O)(=O)OC[C@H]1[C@H](F)[C@@H](Nc2ncncc2C(=O)c2cc3c(s2)COCC32NCCc3ccccc32)C[C@@H]1O` (stereo partly drawn) [Compound 97], the IC50 is greater than 200 nM.

`NS(=O)(=O)OC[C@H]1[C@H](F)[C@@H](Nc2ncncc2C(=O)c2cc3c(s2)OC[C@@]32NCCc3ccc(Cl)cc32)C[C@@H]1O` [Compound 146]: the IC50 is greater than 200 nM.

Regarding `CC(C)N1Cc2sc(C(=O)c3cncnc3N[C@H]3C[C@H](O)[C@@H](COS(N)(=O)=O)[C@@H]3F)cc2[C@]2(C1)OCCc1ccc(Cl)cc12` [Compound 737], the IC50 was no more than 50 nM.

In turn, `NS(=O)(=O)OC[C@H]1[C@H](F)[C@@H](Nc2ncncc2C(=O)c2cc3c(s2)CCC32NCCc3cc(F)c(F)cc32)C[C@@H]1O` (stereo partly drawn) [Compound 152] registered an IC50 of 50 to 200 nM.

`COc1cc2c(cc1Cl)[C@@]1(CCCc3sc(C(=O)c4cncnc4N[C@H]4C[C@H](O)[C@@H](COS(N)(=O)=O)[C@@H]4F)cc31)NCC2` [Compound 675] had an IC50 of 50 to 200 nM.

Turning to `NS(=O)(=O)OC[C@H]1[C@H](F)[C@@H](Nc2ncncc2C(=O)c2cc3c(s2)CCCC32NCCc3ccc(Cl)nc32)C[C@@H]1O` (stereo partly drawn) [Compound 600], the IC50 is no more than 50 nM.

`NS(=O)(=O)OC[C@H]1[C@H](F)[C@@H](Nc2ncncc2C(=O)c2cc3c(s2)CN(C2CC2)CC32OCCc3ccc(Cl)cc32)C[C@@H]1O` (stereo partly drawn) [Compound 741] came in with an IC50 of 50 to 200 nM.

The compound `NS(=O)(=O)OC[C@H]1[C@H](F)[C@@H](Nc2ncncc2C(=O)c2cc3c(s2)CCC32NC3(CC3)Cc3ccc(Cl)cc32)C[C@@H]1O` (stereo partly drawn) [Compound 166] showed an IC50 of 50 to 200 nM.

`Cc1cc2c(cc1Cl)C1(CCCc3sc(C(=O)c4cncnc4N[C@H]4C[C@H](O)[C@@H](COS(N)(=O)=O)[C@@H]4F)cc31)NCC2` (stereo partly drawn) [Compound 113] had an IC50 of 50 to 200 nM.

Compound `NS(=O)(=O)OC[C@H]1[C@H](F)[C@@H](Nc2ncncc2C(=O)c2cc3c(s2)CC=CC32NCCc3ccc(Cl)cc32)C[C@@H]1O` (stereo partly drawn) [Compound 121] displayed an IC50 of no more than 50 nM.

`Cc1ccc2c(c1)[C@@]1(CCCc3sc(C(=O)c4cncnc4N[C@H]4C[C@H](O)[C@@H](COS(N)(=O)=O)[C@@H]4F)cc31)NCC2` [Compound 666] registered an IC50 of 50 to 200 nM.

With `NS(=O)(=O)OC[C@H]1[C@H](F)[C@@H](Nc2ncncc2C(=O)c2cc3c(s2)CN(C2CC2)C[C@]32OCCc3ccc(Cl)cc32)C[C@@H]1O` [Compound 743], the IC50 was no more than 50 nM.

Take `NS(=O)(=O)OC[C@H]1[C@H](F)[C@@H](Nc2ncncc2C(=O)c2cc3c(s2)CN(CC(F)(F)F)CC32NCCc3ccc(Cl)cc32)C[C@@H]1O` (stereo partly drawn) [Compound 651]: the 50% inhibitory concentration (IC50) is no more than 50 nM.

Compound `CCN1Cc2sc(C(=O)c3cncnc3N[C@H]3C[C@H](O)[C@@H](COS(N)(=O)=O)[C@@H]3F)cc2C2(C1)OCCc1ccc(Cl)cc12` (stereo partly drawn) [Compound 729] gave an IC50 of no more than 50 nM.

`NS(=O)(=O)OC[C@H]1[C@H](F)[C@@H](Nc2ncncc2C(=O)c2cc3c(s2)CCCC32NCCc3ccc(C4CC4)cc32)C[C@@H]1O` (stereo partly drawn) [Compound 107] gave an IC50 of 50 to 200 nM.

In turn, `NS(=O)(=O)OC[C@H]1[C@H](F)[C@@H](Nc2ncncc2C(=O)c2cc3c(s2)CCC[C@]32NCCc3cc(F)c(Cl)cc32)C[C@@H]1O` [Compound 671] displayed an IC50 of no more than 50 nM.

In turn, `NS(=O)(=O)OC[C@H]1[C@H](F)[C@@H](Nc2ncncc2C(=O)c2cc3c(s2)C(=O)CC32NCCc3ccc(Cl)cc32)C[C@@H]1O` (stereo partly drawn) [Compound 630] displayed an IC50 of 50 to 200 nM.

On to `Cc1sc(C(=O)c2cncnc2N[C@H]2C[C@H](O)[C@@H](COS(N)(=O)=O)[C@@H]2F)cc1[C@H]1NCCc2ccccc21` [Compound 231], for which the IC50 is greater than 200 nM.

In turn, `NS(=O)(=O)CC[C@H]1[C@H](F)[C@@H](Nc2ncncc2C(=O)c2cc3c(s2)CCCC32NCCc3ccc(Cl)cc32)C[C@@H]1O` (stereo partly drawn) [Compound 636] returned an IC50 greater than 200 nM.
